Calls of active or inactive are those of the source. Cut-off read from the data, not from the text of the source: actives have a measured IC50 and inactives only a lower limit.

In the assay the target is Envelope glycoprotein gp160 (Human immunodeficiency virus 1, UniProt Q6QLK5). Nature of the assay: inhibitors of HIV fusion peptide binding, primary screen, biochemical, uHTS, fluorescence dequenching (AID 1986).
Sequence of Envelope glycoprotein gp160 (Q6QLK5 whole entry, the tested form may be a part): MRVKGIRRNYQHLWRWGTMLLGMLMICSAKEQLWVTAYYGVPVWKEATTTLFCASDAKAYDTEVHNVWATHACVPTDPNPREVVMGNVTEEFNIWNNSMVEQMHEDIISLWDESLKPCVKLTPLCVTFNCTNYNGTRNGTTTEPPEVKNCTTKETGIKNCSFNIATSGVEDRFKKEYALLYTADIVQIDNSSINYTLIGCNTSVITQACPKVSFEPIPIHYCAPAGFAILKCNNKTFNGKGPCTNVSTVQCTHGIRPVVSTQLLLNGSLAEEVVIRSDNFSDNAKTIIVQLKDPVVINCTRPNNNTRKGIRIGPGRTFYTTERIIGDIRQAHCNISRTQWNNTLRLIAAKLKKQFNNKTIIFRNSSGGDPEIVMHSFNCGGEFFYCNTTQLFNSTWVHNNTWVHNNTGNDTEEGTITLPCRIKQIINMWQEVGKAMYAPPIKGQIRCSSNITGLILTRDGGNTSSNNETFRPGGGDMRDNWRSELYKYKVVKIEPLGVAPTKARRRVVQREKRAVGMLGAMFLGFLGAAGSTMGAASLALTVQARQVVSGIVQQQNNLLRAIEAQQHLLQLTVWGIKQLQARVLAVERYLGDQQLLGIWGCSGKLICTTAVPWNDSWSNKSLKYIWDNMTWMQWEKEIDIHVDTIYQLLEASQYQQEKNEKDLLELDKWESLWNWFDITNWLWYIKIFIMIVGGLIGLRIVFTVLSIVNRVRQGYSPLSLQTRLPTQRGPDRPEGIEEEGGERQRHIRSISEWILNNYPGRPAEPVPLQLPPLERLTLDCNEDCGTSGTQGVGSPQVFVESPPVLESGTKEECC
As a reminder, the IC50 is the concentration at which inhibition is half-maximal. In the case of `CCOc1cc(/C=C2\C(=N)N3N=C(S(C)(=O)=O)SC3=NC2=O)ccc1OCCOc1cccc(OC)c1`, the IC50 was 12 µM (active).
In the case of `COc1cc(/C=C2/SC(=S)N(Cc3ccccc3)C2=O)ccc1OCC(=O)O`, the IC50 is 17.3 µM (active).
Regarding `O=[N+]([O-])c1cc([N+](=O)[O-])c2oc(-c3ccccc3)c(Br)c2c1O`, the IC50 was 8.02 µM (active).

Values taken from ChEMBL document CHEMBL1201862, “PubChem BioAssay data set” (2004).
